Results on 1 compound are retold here after US9616062B2, “Cyclin dependent kinase inhibitors and methods of use” (priority 2009, dated 2017).

Each structure is given as a SMILES string.

For test [1], the system named is mice treated with cisplatin. Type of test: in vivo, mouse. The settings on record: single dose PD0332991 150 mg/kg oral gavage with cisplatin 15 mg/kg IP; 72 hours post treatment. Here is the method:
FIG. 7: CDK4/6 inhibition protects kidney function in mice treated with cisplatin. Cohorts of mice were treated with cisplatin (10 mg/kg IP) alone (squares), PD0332991 (150 mg/kg PO) alone (diamonds) or immediately prior to cisplatin (10 mg/kg) (triangles). Kidney function was measured at day 7 by quantification of blood urea nitrogen (BUN) in mg/dL and serum creatinine (Serum Cr) in mg/dL. Data represents the mean of 6 animals per cohort +/−standard error of the mean.
To determine if CDK4/6 inhibition around the time of DNA damage would protect renal function, mice were treated with cisplatin, a known causative agent of renal tubular damage in humans. Mice were treated with PD0332991 150 mg/kg or vehicle control by oral gavage and then received a single dose of cisplatin 15 mg/kg by IP injection. 72 hours post treatment mice were euthanized and blood was collected by cardiac puncture for BUN (blood urea nitrogen) and serum creatinine (SrCr) analysis. Serum BUN and SrCr are common markers of renal function and serum levels quickly elevated when kidney function has been acutely compromised.

The test system of test [2] is murine splenic B and T cells. The test can be described thus: Splenic lymphocyte proliferation in mice (Ki67 or BrdU staining). The test is classed as in vivo, mouse. The settings on record: 24 hours treatment, unstimulated mice. As to the method:
Animals were treated with CDK4/6 inhibitor (PD0332991, open bars) or vehicle (shaded bars) for 24 hours and euthanized. Splenocytes were isolated and stained for B and T cell markers. After gating on appropriate populations, Ki67 staining was performed as an indicator of proliferation and S-phase. Error bars show +/−SEM.
FIG. 22: CDK4/6 inhibitors block B-cell proliferation. Animals were treated with CDK4/6 inhibitor (150 mg/kg by daily oral gavage) or vehicle for 4 days, and BrdU in the drinking water for 3 days. After BrdU treatment, animals were euthanized. Splenocytes were isolated and stained for B cell markers. After gating on appropriate populations, BrdU staining was performed as an indicator of proliferation.
Cohorts of wild type mice were treated with vehicle or a CDK4/6 inhibitor as in FIG. 11. […] Unstimulated mice were treated for 24 hours with PD0332991 and homeostatic B cell proliferation measured by Ki67 staining after appropriate sorting. Similar results were obtained using BrdU incorporation to measure splenic B cell proliferation. Similar experiments were undertaken in human cells with B cell receptor stimulation as described in FIG. 12.
Background: Incorporation of labelled thymidine or its analogues reports DNA synthesis.

The test system of test [3] is human peripheral blood T cells (memory and naive). The test can be described thus: Human peripheral blood T cell proliferation after PMA and ionomycin stimulation (BrdU, Ki-67 FACS). The test is classed as cell-based. Here is the method:
FIG. 13: CDK4/6 inhibitors suppress T cell proliferation upon stimulation through TCR pathway in both memory and naïve compartments. Human peripheral blood T cells were purified using Automacs by CD3 positive selection before being treated with CDK4/6 inhibitors and stimulated with PMA and Inomycin for 48 hrs. The proliferation of memory […] T cells after stimulation by PMA and Inomycin was measured by FACS staining of BrdU+ or Ki-67+ cells. The percentages of inhibition are shown, which indicates more inhibition of memory compartment than naïve compartment.
FIG. 14: CDK4/6 inhibitors suppress T cell proliferation upon stimulation through TCR pathway. […] Proliferation determined by BrdU or Ki67 incorporation. […]
FIG. 15: Changes of CD4 T cell composition after CDK4/6 inhibition. […] The memory and terminal differentiated T cell fractions as assessed by BrdU incorporation are reduced after CDK4/6 inhibition. […]
FIG. 16: Changes of CD4 T cell composition after CDK4/6 inhibition. […] The memory and terminal differentiated T cell fractions as assessed by Ki67 staining are reduced after CDK4/6 inhibition. […]
Similar results were seen using human lymphocytes. […] In FIG. 15, the effects of CDK4/6 inhibition on specific Tcell fractions is assessed, with and without TCR, showing CDK4/6 inhibition has a greater effect on proliferation of memory cells relative to naïve cells. […]

Regarding `CC(=O)c1c(C)c2cnc(Nc3ccc(N4CCNCC4)cn3)nc2n(C2CCCC2)c1=O` [PD0332991, 6-acetyl-8-cyclopentyl-5-methyl-2-(5-piperazin-1-yl-pyridin-2-ylamino)-8H-pyrido-[2,3-d]-pyrimidin-7-one], the “protection of renal function (BUN and SrCr)” value in test [1] is reported as “abrogate the cisplatin-induced nephrotoxicity”. In addition, in test [2], the “splenocyte B and T cell proliferation (Ki67 staining)” value was “blocks T and B cell proliferation”. In test [3], the “proliferation of memory vs naive T cells (BrdU incorporation, Ki67 expression)” value is recorded as “more significant decrease in homeostatic proliferation of memory T cells than naive T cells”.
